Measured values published in patent US7067508B2, “Diaminedithiol derivatives and radiorhenium or radiotechnetium complex thereof; a liver cancer-treating composition comprising the radiorhenium complex and lipiodol; and a kit for preparation of the liver cancer-treating composition” (Seoul National University Industry Foundation, priority 2001, dated 2006).

Experiment: Biodistribution of 188Re-labelled compounds in lipiodol solution in mice after tail vein injection
Type: in vivo
Conditions: mice (ICR)
Description: To the ^188Re-labelled reaction mixture prepared in the foregoing Examples 4 to 6, lipiodol (5 ml) was added, mixed well and the solution was centrifuged at 3000 rpm for 10 min. The supernatant was removed and 2 ml saline was added. After mixing well, the resulting solution was centrifuged again at 3000 rpm for 10 min and the supernatant was removed to recover a lower phase of lipiodol.
Mice (ICR) were administered with an injection of ^188Re-labelled compound in lipiodol solution which was prepared in the Example 7 via the tail vein. Radioactivity distributed in tissues and weight of each tissue were measured to calculate the percentage of radioactivity per gram of unit tissue relative to total radioactivity administered.
As radiation accumulation mechanism in the lung and the liver cancer are similar, it is convenient to detect the level of radiation accumulating in the lung of a mouse suffering from liver cancer. […] Therefore, it can be inferred that a radiorhenium complex of a diaminedithiol derivative having a long side chain is effective for treating liver cancer.

CCCCCCCCCCCC[N+]12CC[N]3CC(C)(C)[S][188Re-]31(=[O])[S]C(C)(C)C2 (stereo not shown) [^188Re-DTDD]
Biodistribution, radioactivity in Blood (10 min post-injection): 13.0 ± 0.6 percentage of radioactivity per gram | Biodistribution, radioactivity in Fat (10 min post-injection): 5.5 ± 0.4 percentage of radioactivity per gram | Biodistribution, radioactivity in Heart (10 min post-injection): 9.1 ± 2.3 percentage of radioactivity per gram | Biodistribution, radioactivity in Kidney (10 min post-injection): 9.9 ± 0.7 percentage of radioactivity per gram | Biodistribution, radioactivity in Liver (10 min post-injection): 14.9 ± 0.7 percentage of radioactivity per gram | Biodistribution, radioactivity in Lung (10 min post-injection): 137.4 ± 13.1 percentage of radioactivity per gram | Biodistribution, radioactivity in Muscle (10 min post-injection): 2.4 ± 0.1 percentage of radioactivity per gram | Biodistribution, radioactivity in Small intestine (10 min post-injection): 4.8 ± 0.3 percentage of radioactivity per gram | Biodistribution, radioactivity in Spleen (10 min post-injection): 5.6 ± 0.3 percentage of radioactivity per gram | Biodistribution, radioactivity in Stomach (10 min post-injection): 18.3 ± 4.4 percentage of radioactivity per gram | Biodistribution, radioactivity in Blood (30 min post-injection): 9.5 ± 1.1 percentage of radioactivity per gram | Biodistribution, radioactivity in Fat (30 min post-injection): 4.4 ± 0.8 percentage of radioactivity per gram | Biodistribution, radioactivity in Heart (30 min post-injection): 5.0 ± 0.9 percentage of radioactivity per gram | Biodistribution, radioactivity in Kidney (30 min post-injection): 7.4 ± 0.5 percentage of radioactivity per gram | Biodistribution, radioactivity in Liver (30 min post-injection): 14.6 ± 2.2 percentage of radioactivity per gram | Biodistribution, radioactivity in Lung (30 min post-injection): 85.1 ± 7.1 percentage of radioactivity per gram | Biodistribution, radioactivity in Muscle (30 min post-injection): 2.0 ± 0.2 percentage of radioactivity per gram | Biodistribution, radioactivity in Small intestine (30 min post-injection): 8.3 ± 0.7 percentage of radioactivity per gram | Biodistribution, radioactivity in Spleen (30 min post-injection): 4.8 ± 0.4 percentage of radioactivity per gram | Biodistribution, radioactivity in Stomach (30 min post-injection): 36.0 ± 5.9 percentage of radioactivity per gram | Biodistribution, radioactivity in Blood (1 hr post-injection): 7.0 ± 0.8 percentage of radioactivity per gram | Biodistribution, radioactivity in Fat (1 hr post-injection): 4.1 ± 0.6 percentage of radioactivity per gram | Biodistribution, radioactivity in Heart (1 hr post-injection): 5.5 ± 0.4 percentage of radioactivity per gram | Biodistribution, radioactivity in Kidney (1 hr post-injection): 6.2 ± 0.7 percentage of radioactivity per gram | Biodistribution, radioactivity in Liver (1 hr post-injection): 13.2 ± 2.8 percentage of radioactivity per gram | Biodistribution, radioactivity in Lung (1 hr post-injection): 82.2 ± 15.1 percentage of radioactivity per gram | Biodistribution, radioactivity in Muscle (1 hr post-injection): 1.5 ± 0.3 percentage of radioactivity per gram | Biodistribution, radioactivity in Small intestine (1 hr post-injection): 9.7 ± 1.2 percentage of radioactivity per gram | Biodistribution, radioactivity in Spleen (1 hr post-injection): 3.5 ± 0.5 percentage of radioactivity per gram | Biodistribution, radioactivity in Stomach (1 hr post-injection): 49.2 ± 7.0 percentage of radioactivity per gram | Biodistribution, radioactivity in Blood (3 hr post-injection): 5.1 ± 1.2 percentage of radioactivity per gram | Biodistribution, radioactivity in Fat (3 hr post-injection): 2.4 ± 0.4 percentage of radioactivity per gram | Biodistribution, radioactivity in Heart (3 hr post-injection): 2.7 ± 0.7 percentage of radioactivity per gram | Biodistribution, radioactivity in Kidney (3 hr post-injection): 5.2 ± 0.7 percentage of radioactivity per gram | Biodistribution, radioactivity in Liver (3 hr post-injection): 7.7 ± 0.6 percentage of radioactivity per gram | Biodistribution, radioactivity in Lung (3 hr post-injection): 61.9 ± 10.3 percentage of radioactivity per gram | Biodistribution, radioactivity in Muscle (3 hr post-injection): 1.0 ± 0.2 percentage of radioactivity per gram | Biodistribution, radioactivity in Small intestine (3 hr post-injection): 11.6 ± 0.3 percentage of radioactivity per gram | Biodistribution, radioactivity in Spleen (3 hr post-injection): 2.9 ± 0.6 percentage of radioactivity per gram | Biodistribution, radioactivity in Stomach (3 hr post-injection): 37.7 ± 12.3 percentage of radioactivity per gram | Biodistribution, radioactivity in Blood (24 hr post-injection): 0.6 ± 0.2 percentage of radioactivity per gram | Biodistribution, radioactivity in Fat (24 hr post-injection): 0.6 ± 0.2 percentage of radioactivity per gram | Biodistribution, radioactivity in Heart (24 hr post-injection): 1.5 ± 0.3 percentage of radioactivity per gram | Biodistribution, radioactivity in Kidney (24 hr post-injection): 1.9 ± 0.3 percentage of radioactivity per gram | Biodistribution, radioactivity in Liver (24 hr post-injection): 3.3 ± 1.1 percentage of radioactivity per gram | Biodistribution, radioactivity in Lung (24 hr post-injection): 47.2 ± 9.2 percentage of radioactivity per gram | Biodistribution, radioactivity in Muscle (24 hr post-injection): 0.3 ± 0.0 percentage of radioactivity per gram | Biodistribution, radioactivity in Small intestine (24 hr post-injection): 9.2 ± 6.9 percentage of radioactivity per gram | Biodistribution, radioactivity in Spleen (24 hr post-injection): 3.3 ± 1.0 percentage of radioactivity per gram | Biodistribution, radioactivity in Stomach (24 hr post-injection): 5.4 ± 1.6 percentage of radioactivity per gram

CCCCCCCCCCCCCCCC[N+]12CC[N]3CC(C)(C)[S][188Re-]31(=[O])[S]C(C)(C)C2 (stereo not shown) [^188Re-HTDD]
Biodistribution, radioactivity in Blood (10 min post-injection): 8.1 ± 1.5 percentage of radioactivity per gram | Biodistribution, radioactivity in Fat (10 min post-injection): 3.9 ± 1.5 percentage of radioactivity per gram | Biodistribution, radioactivity in Heart (10 min post-injection): 9.4 ± 3.0 percentage of radioactivity per gram | Biodistribution, radioactivity in Kidney (10 min post-injection): 7.0 ± 1.8 percentage of radioactivity per gram | Biodistribution, radioactivity in Liver (10 min post-injection): 11.6 ± 1.7 percentage of radioactivity per gram | Biodistribution, radioactivity in Lung (10 min post-injection): 211.3 ± 30.0 percentage of radioactivity per gram | Biodistribution, radioactivity in Muscle (10 min post-injection): 1.9 ± 0.3 percentage of radioactivity per gram | Biodistribution, radioactivity in Small intestine (10 min post-injection): 3.4 ± 0.5 percentage of radioactivity per gram | Biodistribution, radioactivity in Spleen (10 min post-injection): 3.6 ± 0.8 percentage of radioactivity per gram | Biodistribution, radioactivity in Stomach (10 min post-injection): 7.4 ± 1.6 percentage of radioactivity per gram | Biodistribution, radioactivity in Blood (30 min post-injection): 9.1 ± 5.3 percentage of radioactivity per gram | Biodistribution, radioactivity in Fat (30 min post-injection): 2.8 ± 0.5 percentage of radioactivity per gram | Biodistribution, radioactivity in Heart (30 min post-injection): 6.0 ± 1.1 percentage of radioactivity per gram | Biodistribution, radioactivity in Kidney (30 min post-injection): 6.5 ± 0.9 percentage of radioactivity per gram | Biodistribution, radioactivity in Liver (30 min post-injection): 15.9 ± 1.6 percentage of radioactivity per gram | Biodistribution, radioactivity in Lung (30 min post-injection): 185.6 ± 20.9 percentage of radioactivity per gram | Biodistribution, radioactivity in Muscle (30 min post-injection): 1.5 ± 0.2 percentage of radioactivity per gram | Biodistribution, radioactivity in Small intestine (30 min post-injection): 6.5 ± 0.6 percentage of radioactivity per gram | Biodistribution, radioactivity in Spleen (30 min post-injection): 3.1 ± 0.2 percentage of radioactivity per gram | Biodistribution, radioactivity in Stomach (30 min post-injection): 15.1 ± 2.9 percentage of radioactivity per gram | Biodistribution, radioactivity in Blood (1 hr post-injection): 4.2 ± 0.5 percentage of radioactivity per gram | Biodistribution, radioactivity in Fat (1 hr post-injection): 2.7 ± 0.6 percentage of radioactivity per gram | Biodistribution, radioactivity in Heart (1 hr post-injection): 4.7 ± 0.9 percentage of radioactivity per gram | Biodistribution, radioactivity in Kidney (1 hr post-injection): 6.1 ± 1.4 percentage of radioactivity per gram | Biodistribution, radioactivity in Liver (1 hr post-injection): 14.4 ± 2.5 percentage of radioactivity per gram | Biodistribution, radioactivity in Lung (1 hr post-injection): 177.8 ± 18.4 percentage of radioactivity per gram | Biodistribution, radioactivity in Muscle (1 hr post-injection): 1.1 ± 0.2 percentage of radioactivity per gram | Biodistribution, radioactivity in Small intestine (1 hr post-injection): 9.3 ± 1.0 percentage of radioactivity per gram | Biodistribution, radioactivity in Spleen (1 hr post-injection): 3.0 ± 0.8 percentage of radioactivity per gram | Biodistribution, radioactivity in Stomach (1 hr post-injection): 21.0 ± 1.7 percentage of radioactivity per gram | Biodistribution, radioactivity in Blood (3 hr post-injection): 2.8 ± 0.5 percentage of radioactivity per gram | Biodistribution, radioactivity in Fat (3 hr post-injection): 2.0 ± 0.6 percentage of radioactivity per gram | Biodistribution, radioactivity in Heart (3 hr post-injection): 4.5 ± 0.8 percentage of radioactivity per gram | Biodistribution, radioactivity in Kidney (3 hr post-injection): 6.2 ± 1.2 percentage of radioactivity per gram | Biodistribution, radioactivity in Liver (3 hr post-injection): 9.0 ± 1.8 percentage of radioactivity per gram | Biodistribution, radioactivity in Lung (3 hr post-injection): 157.3 ± 28.6 percentage of radioactivity per gram | Biodistribution, radioactivity in Muscle (3 hr post-injection): 0.8 ± 0.2 percentage of radioactivity per gram | Biodistribution, radioactivity in Small intestine (3 hr post-injection): 12.2 ± 1.3 percentage of radioactivity per gram | Biodistribution, radioactivity in Spleen (3 hr post-injection): 2.7 ± 0.1 percentage of radioactivity per gram | Biodistribution, radioactivity in Stomach (3 hr post-injection): 19.3 ± 4.0 percentage of radioactivity per gram | Biodistribution, radioactivity in Blood (24 hr post-injection): 0.6 ± 0.1 percentage of radioactivity per gram | Biodistribution, radioactivity in Fat (24 hr post-injection): 0.8 ± 0.3 percentage of radioactivity per gram | Biodistribution, radioactivity in Heart (24 hr post-injection): 2.2 ± 0.8 percentage of radioactivity per gram | Biodistribution, radioactivity in Kidney (24 hr post-injection): 3.3 ± 0.7 percentage of radioactivity per gram | Biodistribution, radioactivity in Liver (24 hr post-injection): 5.6 ± 1.0 percentage of radioactivity per gram | Biodistribution, radioactivity in Lung (24 hr post-injection): 118.0 ± 19.5 percentage of radioactivity per gram | Biodistribution, radioactivity in Muscle (24 hr post-injection): 0.4 ± 0.1 percentage of radioactivity per gram | Biodistribution, radioactivity in Small intestine (24 hr post-injection): 6.2 ± 3.4 percentage of radioactivity per gram | Biodistribution, radioactivity in Spleen (24 hr post-injection): 9.3 ± 5.2 percentage of radioactivity per gram | Biodistribution, radioactivity in Stomach (24 hr post-injection): 5.5 ± 1.7 percentage of radioactivity per gram
